Data from US20260069588A1, “VEPDEGESTRANT FOR USE IN TREATING CANCER” (Arvinas Operation, Inc., priority 2022, published 2026).

Tests used:
opioid kappa receptor = opioid kappa receptor (Homo sapiens, UniProt P41145); test: Secondary pharmacodynamics binding, opioid kappa receptor; conditions: in vitro
ER = molecular target: T1, ER (Homo sapiens, UniProt P03372); test: ER degradation in ER+ cell lines (MCF7); format: cell-based; parameters: endogenous in cells; host or cells: MCF7 (and a panel of unnamed ER+ cell lines); conditions: MCF7 cells
T1 sequence (P03372 1-595): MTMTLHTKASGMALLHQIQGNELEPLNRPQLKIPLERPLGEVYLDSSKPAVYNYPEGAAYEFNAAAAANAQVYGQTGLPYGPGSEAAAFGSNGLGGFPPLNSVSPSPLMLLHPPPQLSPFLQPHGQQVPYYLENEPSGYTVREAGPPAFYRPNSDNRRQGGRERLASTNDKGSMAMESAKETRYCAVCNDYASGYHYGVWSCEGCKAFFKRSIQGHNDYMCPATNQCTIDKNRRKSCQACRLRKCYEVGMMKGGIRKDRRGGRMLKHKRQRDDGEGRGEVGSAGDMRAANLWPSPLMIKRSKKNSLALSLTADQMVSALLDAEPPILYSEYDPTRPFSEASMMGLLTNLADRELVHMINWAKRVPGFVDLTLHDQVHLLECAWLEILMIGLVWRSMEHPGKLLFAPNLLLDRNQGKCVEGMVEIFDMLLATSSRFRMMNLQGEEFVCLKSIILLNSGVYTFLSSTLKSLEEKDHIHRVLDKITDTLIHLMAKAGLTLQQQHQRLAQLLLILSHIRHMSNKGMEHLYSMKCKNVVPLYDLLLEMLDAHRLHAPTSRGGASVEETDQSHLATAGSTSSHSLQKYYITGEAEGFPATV

[1] = Single-dose oral TK and tolerability study in beagle dogs; format: in vivo; conditions: dog
Method: A lead-in single-dose TK and tolerability study conducted prior to the telemetry study indicated approximately dose-proportional increase in exposure between 200 and 400 mg/kg in the dog.

opioid kappa receptor, sequence (P41145 whole entry): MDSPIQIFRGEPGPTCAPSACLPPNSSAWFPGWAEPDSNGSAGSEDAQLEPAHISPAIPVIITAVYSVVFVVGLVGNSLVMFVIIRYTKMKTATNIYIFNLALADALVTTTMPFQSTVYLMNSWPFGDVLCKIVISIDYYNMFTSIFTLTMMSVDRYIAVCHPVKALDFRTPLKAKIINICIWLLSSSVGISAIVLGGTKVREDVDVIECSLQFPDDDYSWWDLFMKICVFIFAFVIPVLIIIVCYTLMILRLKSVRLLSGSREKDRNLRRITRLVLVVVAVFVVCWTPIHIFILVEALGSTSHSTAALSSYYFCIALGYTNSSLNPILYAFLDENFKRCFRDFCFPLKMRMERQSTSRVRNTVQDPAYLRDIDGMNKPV

O=C1CC[C@H](N2Cc3cc(N4CCN(CC5CCN(c6ccc([C@@H]7c8ccc(O)cc8CC[C@@H]7c7ccccc7)cc6)CC5)CC4)ccc3C2=O)C(=O)N1 [Compound A, (S)-3-(5-(4-((1-(4-((1R,2S)-6-hydroxy-2-phenyl-1,2,3,4-tetrahydronaphthalen-1-yl)phenyl)piperidin-4-yl)methyl)piperazin-1-yl)-1-oxoisoindolin-2-yl)piperidine-2,6-dione]
binding (opioid kappa receptor): bound | ER degradation with excess lenalidomide or with carfilzomib (ER): No degradation of ER | maximum ER degradation (ER): > 90% | Cmax ([1]; both sexes, beagle, in vivo, 400 mg/kg single oral, sexes combined): 25000 ng/mL | AUC ([1]; both sexes, beagle, in vivo, 400 mg/kg single oral, sexes combined, read-out: mean AUC24): 349 µg·h/mL | tolerability ([1]; 200 or 400 mg/kg single oral, fecal changes, emesis at 400): tolerated
